Measurements published in patent US5668128A, “Aziridine derivatives, their production and use” (Takeda Chemical Industries, Ltd., priority 1994, dated 1997).
Where a name gives a salt, the structure may show the parent alone.

What was measured:
[1] = test system: mice; assay: Toxicity study; assay type: in vivo; settings: intravenously or intraperitoneally, 1,000 mg/kg
Procedure: Compound 4 caused no death in mice when it was intravenously or intraperitoneally administered at 1,000 mg/kg.

[2] = target: T1, human recombinant cathepsin L (Homo sapiens, UniProt P07711); assay: Determination of cathepsin L inhibitory activity; assay type: biochemical; settings: pH 5.5, 37° C., 20 minutes, Z-Phe-Arg-7MCA substrate; read-out: Inhibitory activity potency IC50 (ng/ml) Cathepsin L (converted)
T1 construct: they were identified as a precursor of human cathepsin L and a product processed therefrom, estimated from these molecular weights; made in house; host or cells: mouse myeloma Sp2/0 cells transformed with pTBN-HCLneo (Sp-HCL26); purified from serum-free culture supernatant on CM-Sephadex C-50 and Mono S
Procedure: The bioactivities of the compounds of this invention are described below. The compounds [I] or salts thereof have activities of inhibiting cathepsin L and cathepsin B, and of potently inhibiting thiol protease. Their inhibitory activities against cathepsin L were determined by the methods described below.
Determination of cathepsin L inhibitory activity
To 75 μl of a reaction mixture containing 1 ng of human recombinant cathepsin L (as produced in Reference Examples 1 through 7 below), 2 μM of dithiothreitol (hereinafter abbreviated as DTT), 1 mM of ethylenediamine tetraacetate disodium salt, a 0.1M sodium acetate buffer solution (pH 5.5) and various concentrations of test samples, 25 μl of 20 μM benzyloxycarbonyl-L-phenylalanyl-L-arginine-4-methylcoumaryl-7-amide (hereinafter abbreviated as Z-Phe-Arg-7MCA, manufactured by Peptide Institute) was added to initiate the reaction. After incubation at 37° C. for 20 minutes, 100 μl of a reaction stopper solution containing 100 mM sodium monochloroacetate was added. The amount of liberated 4-methyl-7-aminocoumarin was determined at an excitation wavelength of 365 nm and a fluorescence wavelength of 450 nm, using a fluorophotometer (FCA:manufactured by Baxter Travenol). The sample concentration required to cause 50% inhibition was expressed as the IC50 value, with the fluorescence value obtained from the same reaction in the absence of the sample taken as 100%.

[3] = test system: bone resorption as enhanced by PTH (parathyroid hormone); assay: Determination of bone resorption suppressive activity (PTH-stimulated mouse femur culture); assay type: cell-based, female BALB/c mice; settings: 168 h, test compound 10 μg/ml, PTH 1 μM, cultured 7 days
Procedure: The compounds [I] or salts thereof of this invention show suppressive action against bone resorption as enhanced by PTH (parathyroid hormone), and the action was determined by method described below. Determination of bone resorption suppressive activity
Femurs were aseptically isolated from female BALB/c mice at 8-10 weeks of age. After the bone marrow cavity was washed with a Ham F12 medium containing 10 weight % thermally inactivated fetal calf serum, 100 unit/ml penicillin G and 100 unit/ml streptomycin (hereinafter referred to as culture broth), each femur was added to 1 ml of the culture broth and precultured for 3 hours at 37° C. in the presence of 5% carbon dioxide and 95% air. Each bone was transferred to 1 ml of the culture broth supplemented with PTH (manufactured by Peptide Institute, Inc., final concentration 1 μM) and the test compound (final concentration 10 μg/ml) and cultured for 7 more days, after which the total calcium content in the culture broth was determined using Calcium E-Test Wako (manufactured by Wako Pure Chemical Industries, Ltd.). The bone resorption suppressive activity of the test compound was calculated using the following equation.
Bone resorption suppressive activity (%)=100×(Cp-Cs)/(Cp-Cc)
Cc: Total calcium content in the culture broth containing neither PTH nor test compound
Cp: Total calcium content in the culture broth containing PTH […]

T1 sequence (P07711 114-333): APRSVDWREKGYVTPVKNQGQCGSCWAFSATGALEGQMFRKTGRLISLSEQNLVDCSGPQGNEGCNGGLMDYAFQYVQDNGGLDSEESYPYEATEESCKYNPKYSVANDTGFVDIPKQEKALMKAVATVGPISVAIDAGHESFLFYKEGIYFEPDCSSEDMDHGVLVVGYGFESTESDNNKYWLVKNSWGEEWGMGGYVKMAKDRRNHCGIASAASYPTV

Row | Compound | death in mice [1] | IC50 [2] [nM] | activity at 10 µg/mL [3] [%]
1 | CC(C)CCNC(=O)[C@H](Cc1ccccc1)NC(=O)[C@H]1N[C@@H]1C(=O)[O-].[Na+] [Compound 4, N-[N-[(2S,3S)-3-Carboxyaziridine-2-carbonyl]-L-phenylalanyl]isopentylamine sodium salt] | no death | 13.5 | 
2 | NCCCCNC(=O)[C@H](Cc1ccccc1)NC(=O)[C@H]1N[C@@H]1C(=O)O [Compound 7, N-[N-[(2S,3S)-3-carboxyaziridine-2-carbonyl]-L-phenylalanyl]-1,4-diaminobutane] |  | 8.61 | 99
3 | CC(C)CCNC(=O)[C@H](Cc1ccccc1)NC(=O)[C@@H]1[C@@H](C(=O)O)N1C (stereo partly drawn) [Compound 43, N-[N-[(2S,3S)-N-Methyl-3-carboxyaziridine-2-carbonyl]-L-phenylalanyl]isopentylamine Sodium Salt] |  | 0.522 | 
4 | CCN1[C@H](C(=O)O)[C@H]1C(=O)N[C@@H](Cc1ccccc1)C(=O)NCCC(C)C (stereo partly drawn) [Compound 45, N-[N-[(2S,3S)-N-Ethyl-3-Carboxyaziridine-2-carbonyl]-L-phenylalanyl]isopentylamine Sodium Salt] |  | 0.252 | 
